Measured values published in patent US12428388B2, “Nonionic polyether surfactants” (Cepheid, priority 2020, dated 2025).

Key:
[1] = biological target: T1, Lipase from porcine pancreas (Sus scrofa, UniProt P00591); assay: Resistance to Lipase Hydrolysis; format: in vitro ADME; details: 1% surfactant in 10 mM tris-HCl (pH 8.0), CaCl2, Lipase from porcine pancreas (Sigma L3126), room temperature
T1 construct: Lipase from porcine pancreas (Sigma L3126); purchased Sigma L3126; host or cells: porcine pancreas (tissue-derived)
T1 sequence (P00591 1-450): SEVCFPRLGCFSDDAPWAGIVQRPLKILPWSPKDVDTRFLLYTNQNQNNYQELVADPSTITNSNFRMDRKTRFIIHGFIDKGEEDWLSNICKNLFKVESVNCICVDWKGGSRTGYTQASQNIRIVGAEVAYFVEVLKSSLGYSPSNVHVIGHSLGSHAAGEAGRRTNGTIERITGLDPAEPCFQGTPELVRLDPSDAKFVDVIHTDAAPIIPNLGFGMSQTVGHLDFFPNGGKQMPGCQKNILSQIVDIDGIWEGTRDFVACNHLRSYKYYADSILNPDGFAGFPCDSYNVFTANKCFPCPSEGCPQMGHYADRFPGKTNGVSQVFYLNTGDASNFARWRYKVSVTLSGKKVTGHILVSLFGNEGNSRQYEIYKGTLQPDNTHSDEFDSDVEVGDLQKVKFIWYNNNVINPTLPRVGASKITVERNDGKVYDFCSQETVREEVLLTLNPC
Method: (§1) Stability of surfactants in the presence of hydrolyzing enzymes was tested according to a simplified literature procedure (Francisco J. Plou, Manuel Ferrer, Oscar M. Nuero, Maria V. Calvo, Miguel Alcalde, Fuensanta Reyes, Antonio Ballesteros. Analysis of Tween 80 as an esterase/lipase substrate for lipolytic activity assay. Biotechnology Techniques, Vol 12, No 3, March 1998, pp. 183-186.)
B1. Resistance to Lipase Hydrolysis
The following solutions are prepared in two vials: (A) to 20 mL of 1% Tween 20® in 10 mM tris-HCl (pH 8.0) is added 1 mL of 5% CaCl2) followed by 2 mL of 2 mg/mL solution of Lipase from porcine pancreas (Sigma L3126) in 10 μM tris-HCl (pH 8.0); (B) to 20 mL of 1% Compound 1 in 10 mM tris-HCl (pH 8.0) is added 1 mL of 5% CaCl2) followed by 2 mL of 2 mg/mL solution of Lipase from porcine pancreas (Sigma L3126) in 10 μM tris-HCl (pH 8.0). Both solutions were left at room temperature, and changes were observed visually.

[2] = tested on: Esterase from porcine liver; assay: Resistance to Esterase Hydrolysis; format: in vitro ADME; details: 1% surfactant in 10 mM tris-HCl (pH 8.0), CaCl2, Esterase from porcine liver (Sigma E2884), room temperature
Method: as §1
B2. Resistance to Esterase Hydrolysis
The following solutions were prepared in two vials: (A) to 20 mL of 1% Tween 20® in 10 mM tris-HCl (pH 8.0) is added 1 mL of 5% CaCl2) followed by 40 μL of 100 UN/mL solution of Esterase from porcine liver (Sigma E2884) in 10 μM tris-HCl (pH 8.0); (B) to 20 mL of 1% Compound 1 in 10 mM tris-HCl (pH 8.0) is added 1 mL of 5% CaCl2 followed by 40 μL of 100 UN/mL solution of Esterase from porcine liver in 10 μM tris-HCl (pH 8.0). Both solutions were left at room temperature and changes were observed visually.

[3] = Stability in 2M NaOH (visual observation); format: physicochemical; details: 1% surfactant in 2M NaOH, room temperature
Method: In the following experiments, the properties of exemplary reduced polysorbates were compared with the starting materials purchased from Sigma: Tween 20® BioXtra, Cat No P7949 and Tween 80® BioXtra, Cat No P8074
The following solutions are prepared in two vials: (A) 1% Tween 20® in 2M NaOH; (B) 1% Compound 2 in 2M NaOH. Both solutions were left at room temperature and the changes were observed visually.
Similarly, hydrolytic stability of (A) Tween 80® and (B) Compound 2 were compared.

| Substance | stability to lipase hydrolysis, changes of the solution observed visually [1] | stability to esterase hydrolysis, changes of the solution observed visually [2] | hydrolytic stability in 2M NaOH, changes of the solution observed visually [3] |
| --- | --- | --- | --- |
| polyoxyethylene sorbitan monolaurate [Tween 20®] | became cloudy within one hour and became non-transparent the next day | became cloudy within one hour and became non-transparent the next day | became non-transparent within one hour and turned into stiff gel the next day |
| polyoxyethylene sorbitan monooleate [Tween 80®] |  |  | became cloudy within one hour and turned into a stiff gel the next day |
